Columns and labels:
Conditions in all cases: 330 ppm; result in words
Botrytis cinerea = test: Effectiveness on Botrytis cinerea (comparison compounds of WO 01/11965); type: in vivo
Alternaria brassicae = test: In vivo test on Alternaria brassicae (leaf spot of crucifers) on radish plants
Experimental: The active ingredient tested is prepared by potter homogenization in a concentrated suspension type formulation at 100 g/l. This suspension is then diluted with water to obtain the desired active material concentration.
Radish plants (Pernot variety) in starter cups, sown on a 50/50 peat soil-pozzolana substrate and grown at 18-20° C., are treated at the cotyledon stage by spraying with the aqueous suspension described above.
Plants, used as controls, are treated with an aqueous solution not containing the active material.
After 24 hours, the plants are contaminated by spraying them with an aqueous suspension of Alternaria brassicae spores (40,000 spores per cm^3). The spores are collected from a 12-13-day-old culture.
The contaminated radish plants are incubated for 6-7 days at about 18° C., under a humid atmosphere.
Grading is carried out 6 to 7 days after the contamination, in comparison with the control plants.

Peronospora parasitica = test: Efficacy against Peronospora parasitica (comparison compound of WO 01/11965); type: in vivo

CCNC(=O)C(Cc1ncc(C(F)(F)F)cc1Cl)NC(=O)c1cccc([N+](=O)[O-])c1 (stereo not drawn) [compound 307, N-{1-ethylcarbamoyl-2-[3-chloro-5-(trifluoromethyl)-2-pyridinyl]ethyl}-3-nitrobenzamide]
effectiveness on Botrytis cinerea (Botrytis cinerea): zero effectiveness
effectiveness on Alternaria brassicae (Alternaria brassicae): poor effectiveness

O=C(Cc1cccs1)NCc1ncc(C(F)(F)F)cc1Cl [compound 101, N-{[3-chloro-5-(trifluoromethyl)-2-pyridinyl]methyl}-5-thienylacetamide]
effectiveness on Botrytis cinerea (Botrytis cinerea): no efficacy
efficacy against Peronospora parasitica (Peronospora parasitica): no efficacy
effectiveness on Alternaria brassicae (Alternaria brassicae): poor efficacy

CNC(=O)C(Cc1ncc(C(F)(F)F)cc1Cl)NC(=O)c1ccccc1 (stereo not drawn) [compound 314, N-{1-methylcarbamoyl-2-[3-chloro-5-(trifluoromethyl)-2-pyridinyl]ethyl}-benzamide]
effectiveness on Botrytis cinerea (Botrytis cinerea): zero effectiveness

CCNC(=O)C(Cc1ncc(C(F)(F)F)cc1Cl)NC(=O)c1ccc(Cl)cc1 (stereo not drawn) [compound 306, N-{1-ethylcarbamoyl-2-[3-chloro-5-(trifluoromethyl)-2-pyridinyl]ethyl}-4-chlorobenzamide]
effectiveness on Botrytis cinerea (Botrytis cinerea): zero effectiveness

CNC(=O)C(Cc1ncc(C(F)(F)F)cc1Cl)NC(=O)c1ccc(OC)cc1 (stereo not drawn) [compound 315, N-{1-methylcarbamoyl-2-[3-chloro-5-(trifluoromethyl)-2-pyridinyl]ethyl}-4-methoxybenzamide]
effectiveness on Botrytis cinerea (Botrytis cinerea): zero effectiveness

CNC(=O)C(Cc1ncc(C(F)(F)F)cc1Cl)NC(=O)c1ccc(-c2ccccc2)cc1 (stereo not drawn) [compound 316, N-{1-methylcarbamoyl-2-[3-chloro-5-(trifluoromethyl)-2-pyridinyl]-ethyl}-4-phenylbenzamide]
effectiveness on Botrytis cinerea (Botrytis cinerea): zero effectiveness
effectiveness on Alternaria brassicae (Alternaria brassicae): poor effectiveness

CCNC(=O)C(Cc1ncc(C(F)(F)F)cc1Cl)NC(=O)c1ccccc1 (stereo not drawn) [compound 304, N-{1-ethylcarbamoyl-2-[3-chloro-5-(trifluoromethyl)-2-pyridinyl]-ethyl}-benzamide]
effectiveness on Botrytis cinerea (Botrytis cinerea): zero effectiveness

CCNC(=O)C(Cc1ncc(C(F)(F)F)cc1Cl)NC(=O)c1ccccc1Br (stereo not drawn) [compound 310, N-{1-ethylcarbamoyl-2-[3-chloro-5-(trifluoromethyl)-2-pyridinyl]ethyl}-2-bromobenzamide]
effectiveness on Botrytis cinerea (Botrytis cinerea): zero effectiveness

Reference: patent US7524968B2, “2-pyridinylcycloalkylbenzamide derivatives and their use as fungicides” (Bayer Cropscience S.A., priority 2004, dated 2009)
